Reference: ChEMBL document CHEMBL3872270, “Intelligent substance delivery into cells using cell-penetrating peptides” (Bioorg Med Chem Lett, 2017)

Test: Cytotoxicity against human paclitaxel-resistant OVCA429 cells assessed as cell viability preincubated for 20 mins followed by wash and incubation in drug-free media for 72 hrs by MTT assay
Assay type: functional, cell-based

CC(=O)O[C@H]1C(=O)[C@@]2(C)[C@H]([C@H](OC(=O)c3ccccc3)[C@]3(O)C[C@H](OC(=O)[C@H](OC(=O)CCCSSCCCCCCOP(=O)(OCCCCCCNC(=N)N)OCCOP(=O)(OCCCCCCNC(=N)N)OCCOP(=O)(OCCCCCCNC(=N)N)OCCOP(=O)(OCCCCCCNC(=N)N)OCCOP(=O)(OCCCCCCNC(=N)N)OCCOP(=O)(OCCCCCCNC(=N)N)OCCOP(=O)(OCCCCCCNC(=N)N)OCCOP(=O)(OCCO)OCCCCCCNC(=N)N)[C@@H](NC(=O)c4ccccc4)c4ccccc4)C(C)=C1C3(C)C)[C@]1(OC(C)=O)CO[C@@H]1C[C@@H]2O (stereo partly specified)
EC50: 1.4 µM
